From patent US20200155475A1, “Transdermal Drug Delivery System” (Avro Life Sciences, Inc., priority 2017, published 2020)

Experiments:
[1] = Procedure: (§1) Modified Franz Diffusion Cells were filled with 55 ml of phosphate buffer, and a skin simulating membrane was placed in each cell at air-water interface and secured with a holed cap. The cells were placed into a water bath and the temperature was equilibrated to 38° C. The drug-loaded patch was gently placed onto the membrane and pressed down lightly. At different time points, the drug solution was collected and replaced with fresh buffer, and ultraviolet (UV) absorbance was measured at 200-300 nm with clean quartz cuvettes, using standard curves to determine drug concentrations and cumulative drug release percentages over time.
as §1, with “The permeation or flux of several drugs transdermally delivered to the skin was measured in vitro as a function of time using an artificial skin simulating membrane attached to a Franz diffusion cell at air-water interface. […] Modified” for “Modified”

[2] = Percentage diffusion of 4-aminopyridine through the transdermal drug delivery system over time; type: in vitro ADME
Procedure: The patch in the transdermal drug delivery system consisted of 23% (w/w) glycerol, 16% (w/w) gum Arabic, 11% (w/w) medium molecular weight chitosan, and […]. The patch was prepared by casting the liquid matrix gel upon a suitable Teflon backing layer and drying for 18 hours at 55° C. The resulting diffusion profiles were obtained by conducting the same experiment three times. The patch samples indicate the number of times that the same experiment was conducted.
The patch in the transdermal drug delivery system consisted of 50% (w/w) glycerol, 14% (w/w) PVP, 18% (w/w) medium molecular weight chitosan, and 18% (w/w) lactic acid. The patch was prepared by casting the liquid matrix gel upon a suitable Teflon backing layer and drying for 3 hours at 80° C. The resulting diffusion profiles were obtained by conducting the same experiment eight times. The patch samples indicate the number of times that the same experiment was conducted.
The patch in the transdermal drug delivery system consisted of 36% (w/w) glycerol, 15.3% PVP, 0.7% (w/w) gum Arabic, 9.5% (w/w) medium molecular weight chitosan, and 38.5% (w/w) lactic acid. The patch was prepared by casting the liquid matrix gel upon a suitable Teflon backing layer and drying for 5 hours at 80° C. The resulting diffusion profiles were obtained by conducting the same experiment three times. The patch samples indicate the number of times that the same experiment was conducted.
The percentage diffusion of 4-aminopyridine through the transdermal drug delivery system provided herein was measured over time, using different patch compositions. […] The patch was prepared by casting the liquid matrix gel upon a suitable Teflon backing layer and drying for 18 hours at 55° C.
The patch was prepared by casting the liquid matrix gel upon a suitable Teflon backing layer and drying for 3 hours at 80° C.
The patch was prepared by casting the liquid matrix gel upon a suitable Teflon backing layer and drying for 5 hours at 80° C.

[3] = Further experiments: permeation of small molecules through the patch matrix; conditions: molecules trapped in polymer matrix

SMILES	diffusion of drug from the patch through skin simulating membrane over time (system permeable / impermeable) [1]	permeation into skin and bloodstream through the patch matrix [3]	other results
Nc1ccncc1 [4-aminopyridine]	permeable		permeation and diffusion through patch over time ([2]; patch: 23% glycerol, 16% gum Arabic, 11% medium MW chitosan, 48% lactic acid, dried 18 hours at 55° C., FIG. 4): allows permeation and diffusion; permeation and diffusion through patch over time ([2]; patch: 36% glycerol, 15.3% PVP, 0.7% gum Arabic, 9.5% medium MW chitosan, 38.5% lactic acid, dried 5 hours at 80° C., FIG. 6): allows permeation and diffusion; permeation and diffusion through patch over time ([2]; patch: 50% glycerol, 14% PVP, 18% medium MW chitosan, 18% lactic acid, dried 3 hours at 80° C., FIG. 5): allows permeation and diffusion
O=C1CCc2ccc(OCCCCN3CCN(c4cccc(Cl)c4Cl)CC3)cc2N1 [aripiprazole, Aripiprazole]	impermeable		
CC(NCCn1cnc2c1c(=O)n(C)c(=O)n2C)C(O)c1ccccc1 (stereo not shown) [cafedrine]		cannot permeate	
CN(C)CCC[C@@]1(c2ccc(F)cc2)OCc2cc(C#N)ccc21.O=C(O)C(=O)O [escitalopram oxalate, Escitalopram Oxalate]	permeable		
CC(Cc1ccccc1)NCCn1cnc2c1c(=O)n(C)c(=O)n2C (stereo not shown) [fenethylline]		cannot permeate	
CC(=O)CCCCn1c(=O)c2c(ncn2C)n(C)c1=O [pentoxifyline]		cannot permeate	
Cn1c(=O)c2c(ncn2CCNCC(O)c2ccc(O)c(O)c2)n(C)c1=O (stereo not shown) [theodrenaline]		cannot permeate	
